From patent US7910557B2, “Hair care product” (Maruzen Pharmaceuticals Co., Ltd., priority 2005, dated 2011)

Tests used:
[1] = tested on: Normal human head hair papilla cells; assay: Test for hair papilla cell growth promoting action (MTT assay); format: cell-based; details: for Hair papilla cell growth promotion rate (%): 4 days, control = 100
Description: Normal human head hair papilla cells were cultured using a papilla cell growth medium (Cell Application Inc.) containing 2% fetal bovine serum (FBS) and proliferation additives, then the cells were retrieved by trypsinization. The retrieved cells were diluted to a cell concentration of 1.0×10^4 cells/ml using a DMEM medium containing 10% FBS, after which the cells were inoculated in a collagen-coated 96-well plate, at a rate of 200 μl per well, followed by incubation for 3 days. After incubation, the medium was removed and then to the wells there were added 200 μl each of a sample solution in which a respective sample had been dissolved in serum-free DMEM. The wells were then incubated for a further 4 days.
Once incubation was over, the medium was removed, and then to the wells there was added 100 μl each of MTT dissolved in serum-free DMEM (final concentration 0.4 mg/ml). After 2 hours of incubation, the blue formazan formed inside the cells was extracted with 100 μl of 2-propanol. The absorbance of the extracts was measured at a 570 nm wavelength. Turbidity was measured at the same time, as absorbance at the 650 nm wavelength. The amount of blue formazan formed was taken as the difference between the two absorbances. As a control, the same measurements were carried out for specimens in which serum-less DMEM was added instead of the sample solutions. The hair papilla cell growth promotion rate (%) was calculated from the obtained results using the formula below. Hair papilla cell growth promotion rate(%)=A/B×100
In the formula, A represents “absorbance upon sample addition”, and B represents “absorbance without sample addition”.

BMP-2 gene = assay: BMP-2 mRNA expression promotion in HFDPC (RT-PCR); format: cell-based, human; details: for mRNA expression promotion rate (%) BMP-2 mRNA: HFDPC, corrected by G3PDH, control = 100
Description: (§1) The FGF-7 growth promoting action, VEGF growth promoting action and BMP-2 growth promoting action of the corosolic acid obtained in producing examples 1 and 2 (samples 1 and 2) were tested as follows.
(§2) Human hair follicle dermal papilla cells (HFDPC) were cultured using a human hair follicle dermal papilla cells growth medium (PCGM), then the cells were retrieved by trypsinization. The retrieved cells were diluted to a cell concentration of 2×10^5 cells/ml using a DMEM medium containing 10% FBS, after which the cells were inoculated in 60 mm-diameter Petri dishes, at a rate of 5 ml, followed by incubation overnight.
(§3) Once incubation was over, the cells were changed to a serum-less DMEM medium to which the samples (sample 1 and 2) had been added after two-hour incubation, then the cells were dissolved in 1 ml of a reagent for RNA extraction (TRIzol, Invitrogen Corporation). After addition of 200 μl of chloroform to the solutions, these were centrifuged (12000 rpm, 4° C., 15 minutes) and the top RNA layer was isolated. The RNA layer was concentrated in isopropanol. The total RNA concentrated and precipitated was dissolved in a TE solution (10 mM Tris-HCl/1 mM EDTA, pH 8.0), and was taken as a total RNA standard (sequence numbers 1 to 3) used in a template of quantitative RT-PCR for measuring the mRNA expression level of the FGF-7 gene, the VEGF gene and the BMP-2 gene. […]
(§4) After synthesizing single-strand DNA from 500 ng of total RNA in a PCR apparatus (TaKaRa PCR Thermal Cycler MP, TAKARA BIO INC.), the FGF-7 gene (sequence no. 4), the VEGF gene (sequence no. 5), the BMP-2 gene (sequence no. 6), and the G3PDH gene as an internal standard were amplified by PCR reaction, from the single-strand DNA, using specific sense primers (sequence nos. 7 to 9) and antisense primers (sequence nos. 10 to 12) of the respective genes, then 10 μl of the amplified product were electrophoresed on 1.2% agarose gel. […] Then the RT-PCR products were quantitatively measured using KODAK 1D Image Analysis Software EDAS290 Version3.5. […]

[2] = target: T1, testosterone 5α-reductase (Rattus norvegicus, UniProt P24008); assay: Test for testosterone 5α-reductase inhibiting action (S-9 rat liver homogenate, GC quantification); format: biochemical
T1 construct: 75 μl of S-9 (rat liver homogenate, Oriental Yeast Co., Ltd.); tissue Oriental Yeast Co., Ltd; host or cells: rat liver S-9 homogenate
T1 sequence (P24008 1-259): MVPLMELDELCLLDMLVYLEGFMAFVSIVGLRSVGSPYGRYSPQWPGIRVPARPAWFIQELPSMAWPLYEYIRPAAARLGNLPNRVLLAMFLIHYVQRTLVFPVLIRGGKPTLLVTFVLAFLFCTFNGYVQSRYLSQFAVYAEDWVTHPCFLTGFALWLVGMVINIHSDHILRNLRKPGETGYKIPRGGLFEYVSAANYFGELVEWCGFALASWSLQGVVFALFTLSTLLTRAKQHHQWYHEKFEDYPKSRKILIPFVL

FGF-7 gene = assay: FGF-7 mRNA expression promotion in HFDPC (RT-PCR); format: cell-based, human; details: for mRNA expression promotion rate (%) FGF-7 mRNA: HFDPC, corrected by G3PDH, control = 100
Description: as §1, §2, §3, §4

VEGF gene = assay: VEGF mRNA expression promotion in HFDPC (RT-PCR); format: cell-based, human; details: for mRNA expression promotion rate (%) VEGF mRNA: HFDPC, corrected by G3PDH, control = 100
Description: as §1, §2, §3, §4

[3] = sample concentration 0.06 μg/ml
[4] = sample concentration 0.25 μg/ml

C[C@H]1[C@H](C)CC[C@]2(C(=O)O)CC[C@]3(C)C(=CC[C@@H]4[C@@]5(C)C[C@@H](O)[C@H](O)C(C)(C)[C@@H]5CC[C@]43C)[C@H]12 [Sample 1, corosolic acid]
hair papilla cell growth promoting action (in words) ([1]; conclusion from Table 2): hair papilla cell growth promoting action
Hair papilla cell growth promotion rate (%) ([1]; sample concentration 1.56 μg/ml): 111.5 ± 2.2%
Hair papilla cell growth promotion rate (%) ([1]; sample concentration 6.25 μg/ml): 106.1 ± 1.4%
promotion of mRNA expression of the BMP-2 gene (in words) (BMP-2 gene; conclusion from Table 3): promote the mRNA expression
mRNA expression promotion rate (%) BMP-2 mRNA (BMP-2 gene; [3]): 105.3 ± 3.8%
mRNA expression promotion rate (%) BMP-2 mRNA (BMP-2 gene; [4]): 135.3 ± 5.5%
IC50 ([2]; S-9 rat liver homogenate, 37° C., 30 minutes, by interpolation, read-out: IC50 (sample concentration at which the inhibition rate of testosterone 5α-reductase is 50%) (converted)): 1180 µM
testosterone 5α-reductase inhibiting action (in words) ([2]; conclusion from Table 1): excellent testosterone 5α-reductase inhibiting action
promotion of mRNA expression of the FGF-7 gene (in words) (FGF-7 gene; conclusion from Table 3): promote the mRNA expression
mRNA expression promotion rate (%) FGF-7 mRNA (FGF-7 gene; [3]): 122.9 ± 8.5%
mRNA expression promotion rate (%) FGF-7 mRNA (FGF-7 gene; [4]): 124.8 ± 7.2%
promotion of mRNA expression of the VEGF gene (in words) (VEGF gene; conclusion from Table 3): promote the mRNA expression
mRNA expression promotion rate (%) VEGF mRNA (VEGF gene; [3]): 121.8 ± 3.5%
mRNA expression promotion rate (%) VEGF mRNA (VEGF gene; [4]): 106.7 ± 4.5%
